# Target: T1, EDNRB (Homo sapiens, UniProt P24530)
# T1 construct: purchased Promega (in-house HiBiT-GPCR construct library, NanoBRET)
# T1 sequence (P24530 27-442): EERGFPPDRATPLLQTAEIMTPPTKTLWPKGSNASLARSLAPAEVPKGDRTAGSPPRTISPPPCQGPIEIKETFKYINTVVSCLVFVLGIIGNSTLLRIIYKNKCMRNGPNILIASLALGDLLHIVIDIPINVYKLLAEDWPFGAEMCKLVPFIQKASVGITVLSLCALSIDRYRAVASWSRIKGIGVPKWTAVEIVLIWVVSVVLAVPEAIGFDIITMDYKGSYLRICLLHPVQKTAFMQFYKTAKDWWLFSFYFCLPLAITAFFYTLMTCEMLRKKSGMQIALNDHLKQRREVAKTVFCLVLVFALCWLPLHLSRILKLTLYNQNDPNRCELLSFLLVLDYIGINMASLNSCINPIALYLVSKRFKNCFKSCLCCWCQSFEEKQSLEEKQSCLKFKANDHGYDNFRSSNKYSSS
# Assay: NanoBRET screen HiBiT-EDNRB in HEK293
# Assay type: binding
# Protocol: Each tracer candidate was screened across the entire library of HiBiT-GPCR constructs using NanoBRET as the detection modality. As depicted in Figure 4A, the specificity of interactions was evaluated through decrease in BRET due to competitive displacement of a bound tracer by excess parental compound. Each tracer was analyzed for binding to each HiBiT-GPCR fusion in the absence and in the presence of competing parental compound. Briefly, HEK293 cells were transfected with HiBiT-GPCR constructs diluted into promoterless DNA to reduce expression and maximize translocation to the cell surface. Each tracer candidate was then screened at concentrations of 1 μM and 0.1 μM across cells expressing these fusions. Cells were treated for 1.5 h with tracer either alone or in the presence of 20 μM competing parental compound (i.e., control). BRET was measured upon addition of purified LgBiT and subsequent complementation with HiBiT genetically fused to a GPCR. The specificity of interactions was assessed through a decrease in BRET signal due to competitive displacement of the bound tracer. To further gauge the robustness of these interactions, the fold response over the control (i.e., BRETtracer/BRETcontrol) was calculated. We chose a 1.5-fold response, which translates to ≥7-fold signal over noise as the minimal threshold required to score an interaction as positive.
# HiBiT-GPCR DNA constructs were diluted in 10 mM Tris pH 8 to a final concentration of 0.01 μg/μL, arrayed in 96-well plates and stored at −20 °C. For transfection, HEK293 cells were suspended in Opti-MEM (without phenol red) supplemented with 2% fetal bovine serum (Seradigm) and 100 units/mL penicillin–streptomycin (Gibco) at a final concentration of 220,000 cells/mL and dispensed into white 96-well plates at 90 μL/well. Subsequent transfections and screens were carried using an Agilent Bravo Automated Liquid Handling Platform. First, the 96-well HiBiT DNA arrays were diluted 25-fold in Opti-MEM (without serum or phenol red) to a final concentration of 0.0004 μg/μL and 20 μL of the diluted DNAs were transferred into new 96-well plates. Next, promoterless carrier DNA (1 μg/μL) was diluted 25-fold (0.04 μg/μL) and then dispensed into the diluted arrays at 20 μL/well. Following brief mixing, Viafect transfection reagent (Promega) diluted 16-fold into Opti-MEM was dispensed into the plates at 40 μL/well. After mixing by pipetting, plates were incubated for 10 min on the pipetting station deck. The DNA-transfection reagent complexes were then added to plates containing cells. To facilitate the screen, 10 μL of DNA-transfection reagent complexes were added in duplicates to the top 4 and bottom 4 rows, resulting in two identical 48-well arrays per plate. Plates with transfected cells were incubated for 18–20 h at 37 °C/5% CO2. A screen of each tracer across the entire library using two different concentrations requires duplicate plates of transfected cells. Depending on the number of tracers being screened, transfections can be scaled up using the same ratios. The next day, for each tracer, four 20× screening solutions in tracer dilution buffer (Promega) were prepared: two duplicates at final concentration of 20 μM and two duplicates at a final concentration of 2 μM. […] The four resulting solutions were diluted 4-fold in Opti-MEM without serum or phenol red to generate 5× solutions (5 µM and 0.5 µM tracer +/− 100 μM competing compound). To screen the library, a BioTek MultiFlo FX liquid dispenser was used to dispense 22.5 µL of tracer solution to the top 4 rows and 22.5 µL tracer + competing compound solution to the 4 bottom rows. Plates were briefly mixed on an orbital shaker and incubated for 1.5 h at room temperature. […] Plates were briefly mixed on an orbital shaker and incubated for 15 min to allow complementation.
Compound,"NanoBRET Fold Response (EDNRB, tracer 0.1μM)","NanoBRET Fold Response (EDNRB, tracer 1μM)",further results
O=C(CCc1ccc2n1[B-](F)(F)[N+]1=C(c3ccc[nH]3)C=CC1=C2)NCc1ccc(C(=O)NCCOCCC(=O)N[C@@H]2CC[C@@]3(O)[C@H]4Cc5ccc(O)c6c5[C@@]3(CCN4CC3CC3)[C@H]2O6)cc1 [Naltrexone-3-NB590],0.94,1.06,–
CN1CCN(C2=Nc3cc(Cl)ccc3N(CC(=O)NCCOCCOCCOCCOCCNC(=O)CCc3ccc4n3[B-](F)(F)[N+]3=C(c5ccc[nH]5)C=CC3=C4)c3ccccc32)CC1 [Clozapine-c-2-NB590],–,–,"NanoBRET Fold Response (EDNRB, 0.1μM tracer): 1.00; NanoBRET Fold Response (EDNRB, 1μM tracer): 1.06"
O=C(CCOCCOCCOCCOCCNC(=O)CCc1ccc2n1[B-](F)(F)[N+]1=C(c3ccc[nH]3)C=CC1=C2)NCCCN1CCN(C2=Nc3cc(Cl)ccc3Nc3ccccc32)CC1 [Clozapine-a-2-NB590],–,–,"NanoBRET Fold Response (EDNRB, 0.1μM tracer): 1.01; NanoBRET Fold Response (EDNRB, 1μM tracer): 0.93"
CCOC(=O)c1cc(C#N)c(N2CCC(C(=O)NS(=O)(=O)Cc3ccccc3/C=C/C(=O)NCCNC(=O)CCc3ccc4n3[B-](F)(F)[N+]3=C(c5ccc[nH]5)C=CC3=C4)CC2)nc1C [AZD1283-1-NB590],–,–,"NanoBRET Fold Response (EDNRB, 0.1μM): 1.03; NanoBRET Fold Response (EDNRB, 1μM): 0.98"
COc1ccc2[nH]c(-c3ccc(CNC(=O)CCOCCOCCOCCOCCNC(=O)CCc4ccc5n4[B-](F)(F)[N+]4=C(c6ccc[nH]6)C=CC4=C5)cc3)c(CCNC(C)=O)c2n1 [AzomelatoninICO9-2-NB590],–,–,NanoBRET Fold Response (0.1μM tracer): 0.95; NanoBRET Fold Response (1μM tracer): 1.11
CCCn1c(=O)c2[nH]c(-c3ccc(OCC(=O)NCCNC(=O)CCOCCNC(=O)c4ccc(CNC(=O)CCc5ccc6n5[B-](F)(F)[N+]5=C(c7ccc[nH]7)C=CC5=C6)cc4)cc3)nc2n(CCC)c1=O [XAC-3-NB590],0.92,1.18,–
COc1ccccc1N1CCN(CCCCN2C(=O)c3ccc(CNC(=O)CCOCCNC(=O)c4ccc(CNC(=O)CCc5ccc6n5[B-](F)(F)[N+]5=C(c7ccc[nH]7)C=CC5=C6)cc4)cc3C2=O)CC1 [NAN-190-3-NB590],0.95,1.00,–
CN(CCC=C1c2ccccc2CCc2ccccc21)C(=O)CCOCCOCCOCCOCCNC(=O)CCc1ccc2n1[B-](F)(F)[N+]1=C(c3ccc[nH]3)C=CC1=C2 [Amitriptyline-e-2-NB590],–,–,NanoBRET Fold Response (tracer at 1μM): 1.01
O=C(CCc1ccc2n1[B-](F)(F)[N+]1=C(c3ccc[nH]3)C=CC1=C2)NCc1ccc(C(=O)NCCOCCOCCNCC(O)COc2cccc3ccccc23)cc1 (stereo not shown) [Propranolol-3-NB590],–,–,"NanoBRET Fold Response (EDNRB, 0.1μM): 1.05; NanoBRET Fold Response (EDNRB, 1μM): 1.01"
COc1ccc2c(n1)c(CCNC(C)=O)cn2CCNC(=O)CCc1ccc2n1[B-](F)(F)[N+]1=C(c3ccc[nH]3)C=CC1=C2 [Azamelatonin-1-NB590],–,–,NanoBRET Fold Response (0.1μM tracer): 0.96; NanoBRET Fold Response (1μM tracer): 0.96
O=C(CCOCCOCCOCCOCCNC(=O)CCc1ccc2n1[B-](F)(F)[N+]1=C(c3ccc[nH]3)C=CC1=C2)NCCCN1CCN(C2=Nc3ccccc3Oc3ccc(Cl)cc32)CC1 [Loxapine-a-2-NB590],1.05,0.89,–
COc1ccccc1N1CCN(CCCCN2C(=O)c3ccc(CNC(=O)CCOCCOCCOCCOCCNC(=O)CCc4ccc5n4[B-](F)(F)[N+]4=C(c6ccc[nH]6)C=CC4=C5)cc3C2=O)CC1 [NAN-190-2-NB590],1.05,0.99,–
CC(C)N(CC[C@H](c1ccccc1)c1cc(CCNC(=O)c2ccc(CNC(=O)CCc3ccc4n3[B-](F)(F)[N+]3=C(c5ccc[nH]5)C=CC3=C4)cc2)ccc1O)C(C)C [Tolterodine-BZ-NB590],0.96,0.98,–
O=C(CCc1ccc2n1[B-](F)(F)[N+]1=C(c3ccc[nH]3)C=CC1=C2)NCCOCCOCCNC(=O)OCCOCCN1CCN(C2=Nc3ccccc3Sc3ccccc32)CC1 [Quetiapine-a-2-NB590],0.97,0.99,–
CN1CCN(C2=Nc3cc(Cl)ccc3Nc3ccc(CNC(=O)CCOCCOCCOCCOCCNC(=O)CCc4ccc5n4[B-](F)(F)[N+]4=C(c6ccc[nH]6)C=CC4=C5)cc32)CC1 [Clozapine-b-2-NB590],–,–,"NanoBRET Fold Response (EDNRB, 0.1μM tracer): 0.96; NanoBRET Fold Response (EDNRB, 1μM tracer): 0.99"
CC(C)N(CC[C@H](c1ccccc1)c1cc(CCNC(=O)CCOCCOCCOCCOCCNC(=O)CCc2ccc3n2[B-](F)(F)[N+]2=C(c4ccc[nH]4)C=CC2=C3)ccc1O)C(C)C [Tolterodine-2-NB590],0.97,1.03,–
CN(C)CCC=C1c2ccccc2CCc2ccc(C(=O)NCCNC(=O)CCOCCOCCOCCOCCNC(=O)CCc3ccc4n3[B-](F)(F)[N+]3=C(c5ccc[nH]5)C=CC3=C4)cc21 [Amitriptyline-a-2-NB590],–,–,NanoBRET Fold Response (tracer at 0.1μM): 1.04; NanoBRET Fold Response (tracer at 1μM): 1.05
Cc1cc2c(s1)Nc1ccccc1N=C2N1CCN(CCCNC(=O)CCOCCOCCOCCOCCNC(=O)CCc2ccc3n2[B-](F)(F)[N+]2=C(c4ccc[nH]4)C=CC2=C3)CC1 [Olanzapine-a-2-NB590],1.00,0.89,–
N#CN=C(NCCCOc1cccc(CN2CCCCC2)c1)NCCNC(=O)CCOCCOCCOCCOCCNC(=O)CCc1ccc2n1[B-](F)(F)[N+]1=C(c3ccc[nH]3)C=CC1=C2 [Aminopotentidine-2-NB590],1.03,1.02,–
Cc1nc2n(c(=O)c1CCN1CCC(c3noc4cc(F)ccc34)CC1)CCCC2OC(=O)NCCOCCOCCOCCOCCNC(=O)CCc1ccc2n1[B-](F)(F)[N+]1=C(c3ccc[nH]3)C=CC1=C2 (stereo not shown) [Risperidone-2-NB590],1.02,0.97,–
CN(C)CCC=C1c2ccccc2CCc2ccc(C(=O)NCCNC(=O)CCOCCOCCOCCOCCNC(=O)CCc3ccc4n3[B-](F)(F)[N+]3=C(c5ccc[nH]5)C=CC3=C4)cc21 [Amitriptyline-b-2-NB590],–,–,"NanoBRET Fold Response (tracer at 1μM, listed as amitriptyline-b-2-NB590): 0.83"
